Source: patent US20060240032A1, “Immunomodulating compositions and methods for use in the treatment of human autoimmune diseases” (priority 2005, published 2006)
Read-outs that look alike come from different tables or passages of the source. No end group written: not given here.

Legend:
EAE in Lewis rats = EAE in Lewis rats injected with gpMBP in CFA, treatment with saline solution of octamer or monomer; format: in vivo; details: 4 and 8 days after gpMBP-CFA
Description: Experimental autoimmune encephalomyelitis (EAE) in the rat is an acute paralytic disease from which most animals spontaneously recover. The disease can be induced in susceptible inbred Lewis and DA rats with myelin basic protein (MBP), or encephalitogenic MBP peptides administered in complete Freund's adjuvant (CFA). The disease can be adoptively transferred to syngeneic recipients with primed T cells that have been reactivated in vitro with antigen. Studies of EAE in susceptible rats have provided many important insights into the interactions of T cells and accessory cells that culminate in the induction of the autoimmune response.
The influence of a saline solution of the 72-85gpMBP octamer on the course of EAE in Lewis rats previously injected with gpMBP emulsified in CFA was investigated. We injected 10 or 50 micrograms of the 72-85 gpMBP octamer into Lewis rats 4 and 8 days after they had been injected with gpMBP-CFA. […] Rats that received an equivalent amount of the 72-85 amino acid gpMBP peptide monomer at day 4 and day 8 developed clinical signs of disease.

EAE in SJL mice = EAE in SJL mice immunized with PLP(139-151) in CFA (139CFA), treatment after immunization before disease; format: in vivo; details: for development of clinical signs of EAE: intraperitoneal or subcutaneous, days 2, 7 and 10 after 139CFA
Description: For all of these studies, MAP octamers of the 139-151aa peptide of proteolipid protein (PLP) were used and prepared by solid phase peptide synthesis as described above in the Materials and Methods. Each PLP(139-151) MAP octamer is comprised of eight polypeptide chains of the 139-151 aa of PLP each covalently linked to a central core as shown in FIG. 1. The general structure of the MAP (FIG. 1) is therefore dissimilar to the linear array typical of the peptide multimers used by others in the prior art (Falk, Rotzschke et al. 2000; Falk, Rotzschke et al. 2000; Stienekemeier, Falk et al. 2001). MAPs are also referred to as dendrimers to emphasize the branched nature of their structure (Bracci, Falciani et al. 2003). Initial studies with the 139-151 PLP MAP octamers (139MAP) used SJL mice that were first immunized with the encephalitogenic 139-151 PLP peptide in CFA (139CFA) and subsequently injected with saline solutions of 139MAP. […] For this initial study, mice were treated by intraperitoneal or subcutaneous injection with 139MAP on days 2, 7 and 10 following 139CFA injection.

[1] = tested on: adoptively transferred EAE in SJL mice; assay: EAE induced by adoptive transfer of PLP(139-151) specific T-cell lines into naive SJL mice; format: in vivo; details: for additional (relapsing) episodes of EAE: adoptive transfer recipients, treatment initiated after clinical signs of EAE
Description: The T-cell lines employed for these studies were derived from SJL mice previously immunized with 139CFA. The T-cell lines are used for adoptive transfer studies following the third round of antigen-stimulation in vitro. The source of antigen presenting cells is irradiated syngeneic thymus cells. This is a procedure that is routinely used by other investigators and is known by those of skill in the art (Bourdette, Vandenbark et al. 1989).
We treated some of the cell recipients with 50 micrograms 139MAP on three consecutive days with treatment initiated after the development of clinical signs of EAE. […] This is very clear in vivo data showing the 139MAP-associated inhibition of rEAE in the SJL mouse model. The 139MAP reagent inhibits the progression of clinically apparent disease as well as the onset and the continued development of EAE in both the actively-induced as well as the adoptively-transferred forms of EAE.

[2] = tested on: PLP(178-191) induced rEAE in SJL mice; assay: EAE in SJL mice immunized with PLP(178-191) in CFA (antigen specificity); format: in vivo; details: for disease development: SJL mice immunized with PLP(178-191) in CFA, treated days 2, 7 and 10 (FIG. 5)
Description: The relapsing disease that develops in SJL mice is thought to occur due to the immune response that develops against additional encephalitogenic determinants found in PLP and MBP (Cross, Tuohy et al. 1993). […] Immunization of SJL mice with the PLP(178-191) peptide in CFA caused the development of clinically apparent disease 12-14 days following immunization. […] FIG. 6 represents a second experiment (4 animals per group) in which mice treated with 139MAP after they developed initial signs of EAE due to immunization with the PLP(178-191) peptide.

[3] = tested on: PLP(139-151) peptide specific T-cell lines; assay: Proliferation of encephalitogenic T-cell line in response to antigen in vitro; format: cell-based; details: T-cell line from 139CFA-immunized SJL mice
[4] = tested on: antigen specific lymphocytes; assay: Additional studies on lymphoid traffic after 139MAP treatment; format: in vivo
[5] = tested on: relapsing EAE (rEAE) in SJL mice; details: for relapses (rEAE): 100 microgram doses on two consecutive days after clinical disease evident
Description: Animals are graded as grade 1 when the first sign of disease is evident which is a flaccid tail.
The 139MAP-treated animals were given 100 microgram doses of 139MAP on two consecutive days. […] All reagents were administered on two consecutive days after clinical disease was evident.

diabetes in NOD mice = details: cited from earlier work

## 72-85 amino acid gpMBP peptide monomer: monomer of the 72-85 amino acid peptide of guinea pig myelin basic protein (LPQKSQRSQDENPV; UniProt P25188 72-85, looked up, fragment) [reference compound]
EAE in Lewis rats; 10 micrograms
  clinical signs of EAE: No diminution of the signs of clinical disease
EAE in Lewis rats; 50 micrograms
  clinical signs of EAE: modest diminution of the clinical signs of EAE

## 72-85 gpMBP octamer: chemically synthesized octamers of the 72-85 amino acid peptide of guinea pig myelin basic protein (SEQ ID NO:7) (LPQKSQRSQDENPV; also: octamer on lysine-branched core)
EAE in Lewis rats; 10 micrograms
  clinical signs of EAE: developed less severe disease compared to the control group
EAE in Lewis rats; 50 micrograms
  clinical signs of EAE: did not develop any signs of clinical disease
EAE in SJL mice; SJL mice immunized with 139CFA, control octamer, dose not stated (FIG. 3)
  development of EAE disease: had no effect of the development of EAE disease
[1]
  additional (relapsing) episodes of EAE: developed a relapsing episode of clinically severe EAE

## 139MAP: chemically synthesized octamer of PLP 139-151 peptide (HSLGKWLGHPDKF, SEQ ID NO:8), each linked through KKKKKGG spacer to a lysine-branched core (also: octamer, each linked via KKKKKGG spacer to lysine-branched core (MAP))
EAE in SJL mice; SJL mice, 20 micrograms
  development of clinical signs of EAE: Virtually all signs of disease were prevented
EAE in SJL mice; SJL mice, 100 micrograms
  development of clinical signs of EAE: Virtually all signs of disease were prevented
EAE in SJL mice; SJL mice, three injections of 5 micrograms after 139CFA (FIG. 3)
  diminution of EAE: considerable diminution of EAE
[2]
  disease development: no significant inhibition of disease development
[2]; listed as MAP139 octamer
  disease development: does not inhibit the development of PLP(178-191) induced rEAE
[2]; SJL mice immunized with PLP(178-191), treated after initial signs of EAE
  development of relapses: inhibits the development of relapses
[1]; 50 micrograms on three consecutive days, initiated after clinical signs of EAE
  continued development of the first episode of disease: inhibited the continued development of the first episode of disease
[1]; administered prior to onset of disease or at first indication of disease (tail flaccidity), data not shown
  development of adoptively transferred EAE and subsequent relapses: completely inhibited
[1]
  additional (relapsing) episodes of EAE: no or very modest signs of additional episodes of EAE
[1]; listed as MAP139 octamer
  additional (relapsing) episodes of EAE: inhibits the development of rEAE
[3]
  T-cell line proliferation in response to antigen: proliferated in response
[4]
  lymphoid traffic to the autoimmune target organ: alters lymphoid traffic to the autoimmune target organ
[5]
  relapses (rEAE): inhibited the relapse component of this disease
[5]; 100 microgram doses on two consecutive days after clinical disease evident (grades 1-3)
  subsequent course of disease: profound and immediate influence on the subsequent course of disease
[5]; listed as MAP139 octamer
  relapses (rEAE): effectively inhibits rEAE

## B(9-23): peptide of residues 9-23 of the insulin B chain (SEQ ID NO:2) (SHLVEALYLVCGERG)
Diabetes in NOD mice; peptide therapy
  anaphylaxis: development of anaphylaxis
Diabetes in NOD mice; subcutaneous or intranasal administration
  onset and incidence of diabetes: marked delay in the onset and a decrease in the incidence of diabetes
